Measurements as given in US20260191817A1, “FIBROBLAST MODULATORS IN STROMA-RICH TUMORS” (UNIVERSITEIT GENT, priority 2022, published 2026).

Columns and labels:
[1] = test system: human invasive MCF-7/6 mammary carcinoma cells; assay: Chick heart invasion (CHI) assay with MCF-7/6 aggregates; type: cell-based; details: MCF7/6, 192 h, lowest concentration at which an anti-invasive effect (histological grade I or II) was observed, 8 days, read-out: Lowest active concentration
Experimental: Chick heart invasion assays were performed as described earlier (Bracke et al. 2014). Precultured heart fragments of 9-day-old chicken embryos were confronted with MCF-7/6 aggregates on top of a semi-solid agar at 37° C. overnight, after which the confronting pairs were cultured in suspension for 8 days at 37° C., 10% CO2 in presence or absence of a test compound (in duplo). This procedure can also be performed with aggregates of 4T1-Luc cells, for which the suspension culture of the confronting pairs is performed for 3.5 days. All compounds were evaluated at 1 μM and 100 nM; depending on the outcome higher or lower concentrations were subsequently evaluated. Upon fixation in Bouin-Hollande, the cultures were dehydrated and embedded in paraffin. Sections of the confrontation cultures were stained with hematoxylin-eosin are blinded and scored by a trained person (Bracke et al., 2014).
In the chick heart invasion assay cancer cells are confronted with a fragment of normal tissue, so as not to neglect the contribution of the host tissue in the micro-ecosystem that governs tumor behavior. As such, precultured heart tissue fragments (PHFs), dissected from 9-day-old chicken embryos, may be confronted with aggregates of human invasive MCF-7/6 mammary carcinoma cells or other cells in the presence of a certain concentration of a test compound. After eight days for MCF-7/6, or another period depending on the cell type, the interaction between the cancer cells and the PHF is evaluated histologically and classified along a 5-grades subjective scale (Bracke et al. 2014). Grades III and IV are typical for invasion, while grades 0, I and II correspond to absence of invasion. Compounds that inhibit invasion of confronting cancer cells i.e. from III/IV to 0/I/II, are determined as anti-invasive. Possible alternative assays generally known in the art are the type I collagen invasion assay, wound healing assay and the matrigel invasion assay.
The chick heart invasion (CHI) assay is a phenotypic assay that confronts precultured heart tissue fragments (PHFs, ‘normal tissue’), obtained from 9-day-old chicken embryos, with aggregates of human invasive MCF-7/6 mammary carcinoma cells (Bracke et al. 2014). In the control situation, the MCF-7/6 cells encircle, invade and destroy the PHF over an 8-day period. Invasion in this assay is defined as the progressive occupation and destruction of the PHF by the MCF-7/6 cells. Three-dimensional reconstruction of this interaction is obtained by microscopic analysis of all consecutive histological sections of the culture. The read-out is an invasion score according to a 5-grades histological scale.
The CHI closely reproduces the temporal, spatial and histological invasion patterns in man. The co-culture set-up probes for effects on both tumor cells and host tissue, and thus interrogates potential pharmacological targets in either interaction partner. Its use of histological evaluation allows discerning anti-invasive action from cytotoxicity or other effects.
We have submitted flavones B1-B4, flavanones B5-B8 and the intermediate 2′-hydroxychalcones A9, All and A12 to the chick heart invasion assay using MCF-7/6 aggregates. All compounds were evaluated at 1 μM and 100 nM; depending on the outcome higher or lower concentrations were subsequently evaluated. […] This table also includes CHI data on chalcones A1, A2 and A5.

13B2 hTERT breast CAFs = assay: AFM spheroid stiffness, 13B2 hTERT breast CAFs; type: cell-based, human; details: 48 h during spheroid formation; for Young's modulus / spheroid stiffness: 1 μM; for spheroid stiffness: 10 μM
Description: (§1) It is well established that an increased tumor and ECM stiffness is associated with a negative prognosis as it promotes tumor growth, progression, therapy resistance, immunosuppression and metastasis. Stiffness is chiefly regulated by the action of the CAFs in the TME. Stiffness modulation is, therefore, a fitting read-out of activity in a screen for CAF modulators. To assess stiffness modulation, the stiffness of spheroids of CAF cells treated with test compounds was interrogated using atomic force microscopy (AFM) indentation and compared with untreated cells. AFM measurement of the stiffness (elasticity) of cells and spheroids is a technique well-known to those skilled in the art. AFM measures the force required to create a given deflection, this read-out is also known as the Young's modulus. AFM is widely used in biology and cancer research: altered physicochemical properties of live cells serve as a read-out of altered complex physiological processes.
(§2) U-shaped, 384-well ULA plates (cat. no. MS-9384UZ, S-bio) were seeded with a suspension of cell-specific culture media with cells. Cells were allowed to form spheroids for an appropriate time under treatment conditions before use in experiments. Cell culture dishes (cat. no. 734-2814, VWR) were filled with collagen gel and placed at 37° C. for an appropriate time to allow solidification. For each condition, spheroids were pooled in one cell culture dish. The medium was removed (stored at 37° C.) to promote attachment of the bottom of each spheroid to the collagen gel. The cell culture dishes were incubated at 37° C. After the incubation period, the stored medium was carefully (prevent detachment of spheroids) added to the dishes.
(§3) Mechanical measurements were performed using an atomic force microscope. To indent the spheroids an in-house made colloidal probe was used. Force curves were collected using an appropriate setpoint and probe speed (depending on the stiffness of the spheroids). On each spheroid multiple force curves were collected. Collected curves were then processed using the JPK DP software. Young's modulus was extracted from the force curves. All experiments were performed in biological triplicate.
(§4) To generate 3D cultures mimicking the complexity and pathophysiology of in vivo tumors, spheroids were used (cfr. point 4). Spheroids are considered to better simulate cellular heterogeneity, nutrient and oxygen gradients, cell-cell interactions, cell-matrix interactions, gene expression profiles, stromal interactions, therapeutic responses, multicellular resistance, drug penetration and anti-apoptotic signaling.

[2] = test system: MCF-7/6 breast cancer cells; assay: AFM spheroid stiffness, MCF-7/6 breast cancer cells; type: cell-based, human; details: 10 μM, 48 h
Experimental: (§5) Selectivity for CAFs with respect to normal fibroblasts and other cell types was assessed by performing an identical experiment with normal fibroblasts and other cell types, where compounds were considered selective for CAFs if they only modulate CAF stiffness.
as §2, §3, §4

CAF03 glioblastoma CAFs = assay: AFM spheroid stiffness, CAF03 glioblastoma CAFs; type: cell-based; details: 10 μM, 48 h
Description: as §1, §2, §3, §4

[3] = test system: primary human atrial fibroblasts; assay: AFM spheroid stiffness, primary human atrial fibroblasts; type: cell-based; details: 10 μM, 48 h
Experimental: as §5, §2, §3, §4

[4] = test system: primary glioblastoma (GBM) cells; assay: AFM spheroid stiffness, primary glioblastoma cells; type: cell-based, human; details: 10 μM, 48 h
Experimental: as §5, §2, §3, §4

[5] = test system: HCA2 hTERT dermal fibroblasts; assay: AFM spheroid stiffness, HCA2 hTERT dermal fibroblasts; type: cell-based; details: HCA2 hTERT normal dermal fibroblasts; 10 μM, 48 h
Experimental: as §5, §2, §3, §4

**Q.** Which minimal effective concentration [1] does the source give for `COc1ccc(C(=O)/C=C/c2ccc(Cl)cc2)cc1` [Compound A2, 3-(4-Chlorophenyl)-1-(4-methoxyphenyl)prop2-en-1-one] here?
**A.** 0.01 µM

**Q.** `COc1ccc(C(=O)/C=C/c2ccc(F)cc2)cc1` [Compound A5, 3-(4-Fluorophenyl)-1-(4-methoxyphenyl)prop2-en-1-one] was tested. Which minimal effective concentration [1] did it give?
**A.** 1 µM

**Q.** With `O=C(/C=C/c1ccccc1)c1ccccc1` [Compound A8, 1,3-Diphenvlprop2-en-1-one] as the compound, how does the “Young's modulus / spheroid stiffness” value (13B2 hTERT breast CAFs) read?
**A.** did not have an effect

**Q.** With `COc1cc(O)c(C(=O)/C=C/c2ccc(F)cc2)c(OC)c1OC` [Compound A10, 3-(4-Fluorophenyl)-1-(6-hydroxy-2,3,4-trimethoxyphenyl)prop-2-en-1-one] as the compound, how does the minimal effective concentration [1] read?
**A.** 0.01 µM

**Q.** `COc1ccc(C(=O)/C=C/c2ccc(F)cc2)c(O)c1` [Compound A12, 3-(4-fluorophenyl)-1-(2-hydroxy-4-methoxyphenyl)prop-2-en-1-one] was tested. Which minimal effective concentration [1] did it give?
**A.** 1 µM

**Q.** For `COc1ccc(C(=O)/C=C/c2ccc(Cl)cc2)c(O)c1` [Compound A13, 3-(4-chlorophenyl)-1-(2-hydroxy-4-methoxyphenyl)prop-2-en-1-one], which minimal effective concentration [1] is on record?
**A.** 0.1 µM

**Q.** With `COc1ccc(C(=O)/C=C/c2ccc(F)cc2)cc1C(F)(F)F` [Compound A14, 3-(4-Fluorophenyl)-1-(4-methoxy-3-(trifluoromethyl)phenyl)prop-2-en-1-one] as the compound, how does the “Young's modulus / spheroid stiffness” value (13B2 hTERT breast CAFs) read?
**A.** decreased

**Q.** Which minimal effective concentration [1] does the source give for `COc1cc2c(=O)cc(-c3ccc(F)cc3)oc2c(OC)c1OC` [Compound B2, 2-(4-Fluorophenyl)-6,7,8-trimethoxy-4H-chromen-4-one] here?
**A.** 10 µM

**Q.** For `COc1ccc2c(=O)cc(-c3ccc(F)cc3)oc2c1` [Compound B3, 2-(4-Fluorophenyl)-7-methoxy-4H-chromen-4-one], which minimal effective concentration [1] is on record?
**A.** 0.01 µM

**Q.** How did the minimal effective concentration [1] turn out when `COc1ccc2c(=O)cc(-c3ccc(Cl)cc3)oc2c1` [Compound B4, 2-(4-Chlorophenyl)-7-methoxy-4H-chromen-4-one] was run?
**A.** 0.01 µM

**Q.** `COc1cc2c(c(OC)c1OC)C(=O)CC(c1ccc(F)cc1)O2` (centres unmarked) [Compound B5, 2-(4-Fluorophenyl)-5,6,7-dimethoxychroman-4-one] was tested. Which minimal effective concentration [1] did it give?
**A.** 0.1 µM

**Q.** For `COc1cc2c(c(OC)c1OC)OC(c1ccc(F)cc1)CC2=O` (centres unmarked) [Compound B6, 2-(4-Fluorophenyl)-6,7,8-dimethoxychroman-4-one], which minimal effective concentration [1] is on record?
**A.** 100 µM

**Q.** `COc1ccc2c(c1)OC(c1ccc(F)cc1)CC2=O` (centres unmarked) [Compound B7, 2-(4-Fluorophenvl)-7-methoxvchroman-4-one] was tested. Which minimal effective concentration [1] did it give?
**A.** 10 µM

**Q.** Which minimal effective concentration [1] does the source give for `COc1ccc2c(c1)OC(c1ccc(Cl)cc1)CC2=O` (centres unmarked) [Compound B8, 2-(4-Chlorophenyl)-7-methoxvchroman-4-one] here?
**A.** 0.1 µM

**Q.** `C[C@@H](N)[C@H]1CC[C@H](C(=O)Nc2ccncc2)CC1` [Compound Y-27632, Y-27632, reference compound] was tested. Which spheroid stiffness (13B2 hTERT breast CAFs) did it give?
**A.** active

**Q.** And the spheroid stiffness [2]?
**A.** reduced the stiffness

**Q.** And the spheroid stiffness (CAF03 glioblastoma CAFs)?
**A.** active

**Q.** What about the spheroid stiffness [3] of the same compound?
**A.** reduced the stiffness

**Q.** And the spheroid stiffness [4]?
**A.** reduced the stiffness

**Q.** What about the spheroid stiffness [5] of the same compound?
**A.** reduced the stiffness

**Q.** For `Cc1ccc2c(c1)C(=O)C1(O)CCN(c3ccccc3)C1=N2` (centres unmarked) [blebbistatin, reference compound], which spheroid stiffness (13B2 hTERT breast CAFs) is on record?
**A.** active

**Q.** And the spheroid stiffness [2]?
**A.** reduced the stiffness

**Q.** What about the spheroid stiffness (CAF03 glioblastoma CAFs) of the same compound?
**A.** active

**Q.** And the spheroid stiffness [3]?
**A.** reduced the stiffness

**Q.** What about the spheroid stiffness [4] of the same compound?
**A.** reduced the stiffness

**Q.** What about the spheroid stiffness [5] of the same compound?
**A.** reduced the stiffness

**Q.** Which results are given for `C=C1[C@@H](C)[C@H]2[C@H](Cc3ccccc3)NC(=O)[C@]23[C@H](OC(C)=O)/C=C/[C@@](C)(O)C(=O)[C@@H](C)C/C=C/[C@H]3[C@@H]1O` [cytochalasin D, reference compound]?
**A.** spheroid stiffness (13B2 hTERT breast CAFs): active; spheroid stiffness [2]: reduced the stiffness; spheroid stiffness (CAF03 glioblastoma CAFs): active; spheroid stiffness [3]: reduced the stiffness; spheroid stiffness [4]: reduced the stiffness; spheroid stiffness [5]: reduced the stiffness
